Laboratory results reported in the NIST ThermoML archive (doi:10.1021/je3011979).
± gives the expanded uncertainty stated by the source.

Columns and labels:
[1] = xn = mol fraction of the nth substance listed; settings: 101 kPa, Liquid, Vibrating tube method
[2] = excess molar enthalpy (molar enthalpy of mixing); xn = mol fraction of the nth substance listed; settings: 291.15 K, 101 kPa, Liquid, Calvet calorimetry

CCCOC(C)=O [propyl ethanoate] + CCCCCCCCC
[1]
Settings | mass density [kg/m3]
291.15 K, x1 = 0.0569 | 724.6 ± 0.3
291.15 K, x1 = 0.1163 | 730.7 ± 0.3
291.15 K, x1 = 0.1916 | 739 ± 0.3
291.15 K, x1 = 0.282 | 750 ± 0.3
291.15 K, x1 = 0.3583 | 760 ± 0.3
291.15 K, x1 = 0.4338 | 770.9 ± 0.3
291.15 K, x1 = 0.4846 | 778.7 ± 0.3
291.15 K, x1 = 0.5686 | 792.4 ± 0.3
291.15 K, x1 = 0.6289 | 803.2 ± 0.3
291.15 K, x1 = 0.6876 | 814.4 ± 0.3
291.15 K, x1 = 0.7441 | 826 ± 0.3
291.15 K, x1 = 0.7948 | 837.1 ± 0.3
291.15 K, x1 = 0.8162 | 841.9 ± 0.3
291.15 K, x1 = 0.8844 | 858.5 ± 0.3
291.15 K, x1 = 0.9349 | 871.7 ± 0.4
291.15 K, x1 = 0.9464 | 874.9 ± 0.4
291.15 K, x1 = 1 | 889.6 ± 0.2
298.15 K, x1 = 0.0361 | 717.2 ± 0.3
298.15 K, x1 = 0.0384 | 717.4 ± 0.3
298.15 K, x1 = 0.1106 | 724.5 ± 0.3
298.15 K, x1 = 0.2023 | 734.5 ± 0.3
298.15 K, x1 = 0.2833 | 744.2 ± 0.3
298.15 K, x1 = 0.3636 | 754.6 ± 0.3
298.15 K, x1 = 0.4312 | 764.2 ± 0.3
298.15 K, x1 = 0.5061 | 775.6 ± 0.3
298.15 K, x1 = 0.5653 | 785.3 ± 0.3
298.15 K, x1 = 0.6308 | 796.9 ± 0.3
298.15 K, x1 = 0.6728 | 804.8 ± 0.3
298.15 K, x1 = 0.7321 | 816.5 ± 0.3
298.15 K, x1 = 0.7908 | 829 ± 0.3
298.15 K, x1 = 0.8257 | 836.9 ± 0.3
298.15 K, x1 = 0.8918 | 852.8 ± 0.3
298.15 K, x1 = 0.9404 | 865.6 ± 0.4
298.15 K, x1 = 1 | 882.5 ± 0.2
318.15 K, x1 = 0.0217 | 700 ± 0.3
318.15 K, x1 = 0.1046 | 707.7 ± 0.3
318.15 K, x1 = 0.1791 | 715.4 ± 0.3
318.15 K, x1 = 0.2659 | 725 ± 0.3
318.15 K, x1 = 0.335 | 733.4 ± 0.3
318.15 K, x1 = 0.4077 | 742.9 ± 0.3
318.15 K, x1 = 0.4731 | 752.1 ± 0.3
318.15 K, x1 = 0.5367 | 761.7 ± 0.3
318.15 K, x1 = 0.5943 | 771 ± 0.3
318.15 K, x1 = 0.6526 | 781.2 ± 0.3
318.15 K, x1 = 0.7078 | 791.4 ± 0.3
318.15 K, x1 = 0.7597 | 801.7 ± 0.3
318.15 K, x1 = 0.8179 | 814.1 ± 0.3
318.15 K, x1 = 0.8565 | 822.8 ± 0.3
318.15 K, x1 = 0.8964 | 832.4 ± 0.3
318.15 K, x1 = 0.9373 | 842.7 ± 0.4
318.15 K, x1 = 1 | 859.8 ± 0.2
328.15 K, x1 = 0.056 | 695.1 ± 0.3
328.15 K, x1 = 0.1062 | 699.8 ± 0.3
328.15 K, x1 = 0.1918 | 708.3 ± 0.3
328.15 K, x1 = 0.2757 | 717.5 ± 0.3
328.15 K, x1 = 0.3519 | 726.6 ± 0.3
328.15 K, x1 = 0.429 | 736.7 ± 0.3
328.15 K, x1 = 0.4999 | 746.7 ± 0.3
328.15 K, x1 = 0.5709 | 757.6 ± 0.3
328.15 K, x1 = 0.6217 | 766 ± 0.3
328.15 K, x1 = 0.6881 | 777.7 ± 0.3
328.15 K, x1 = 0.7461 | 788.7 ± 0.3
328.15 K, x1 = 0.7857 | 796.8 ± 0.3
328.15 K, x1 = 0.8318 | 806.6 ± 0.3
328.15 K, x1 = 0.8801 | 817.6 ± 0.3
328.15 K, x1 = 0.8853 | 818.8 ± 0.3
328.15 K, x1 = 0.9429 | 833 ± 0.4
328.15 K, x1 = 1 | 848.3 ± 0.2

[2]
Settings | excess molar enthalpy [kJ/mol]
x1 = 0.1167 | 0.596 ± 0.007
x1 = 0.2247 | 0.946 ± 0.009
x1 = 0.3093 | 1.167 ± 0.01
x1 = 0.379 | 1.298 ± 0.011
x1 = 0.4448 | 1.36 ± 0.011
x1 = 0.5009 | 1.383 ± 0.012
x1 = 0.5447 | 1.371 ± 0.011
x1 = 0.5617 | 1.359 ± 0.011
x1 = 0.6139 | 1.312 ± 0.011
x1 = 0.6683 | 1.222 ± 0.01
x1 = 0.7299 | 1.085 ± 0.01
x1 = 0.7964 | 0.899 ± 0.009
x1 = 0.8649 | 0.648 ± 0.008
x1 = 0.9356 | 0.355 ± 0.007
